In one test the test system is Calu-3 airway epithelia. Put plainly: Short-circuit current (transepithelial Cl secretion) across Calu-3 airway epithelia, Examples 12-13. Format: cell-based, human. The conditions noted are these: DPC 4 mM after L-ascorbic acid and forskolin. The procedure: Short-circuit current measurement. Calu-3 or CF15 cells were grown as monolayers, mounted in Ussing chambers and short-circuit current (ISC) was recorded as described (Illek, B. & Fischer, H. (1998) Am. J. Physiol. 275, L902-L910). At 20-50 second intervals, transepithelial voltage was clamped from zero to 2 mV and the transepithelial resistance (Rte) was calculated. A serosa-to-mucosa-directed Cl gradient was applied. Serosal Ussing chamber solution contained (in mM): 120 NaCl, 20 NaHCO3, 5 KHCO3, 1.2 NaH2PO4, 5.6 glucose, 2.5 CaCl2, 1.2 MgCl2. In mucosal Ussing chamber solutions, all Cl salts were exchanged for gluconate salts.
Vitamin C activation of CFTR-mediated Cl secretion was studied in Calu-3 cells grown as epithelial monolayers (FIG. 21A). Exposure of the apical membrane to maximal concentrations of L-ascorbic acid stimulated transepithelial Cl currents (ISC) in a sustained fashion to 96±11 μA/cm^2 (n=22). Subsequent addition of forskolin further increased ISC to 141±33 μA/cm^2 (n=9, p=0.029). On average, Cl secretion was stimulated by ascorbate to 68% of the currents elicited by forskolin. The Cl channel blocker diphenylcarboxylate (DPC, 4 mM) was added as a measure for the transcellular Cl current decreasing ISC to 30±4 μA/cm^2. When Cl secretion was first stimulated with forskolin (to 106±23 μA/cm^2, n=4) ascorbate had no significant effect on Ise (at 100 μM: ΔICl=−1.5±3.5 μA/cm^2, n=4, not different from zero, one-sample t test). Half-maximal stimulatory constant averaged 36.5±2.9 μm as determined from transepithelial dose-response experiments.
Furthermore, the response to ascorbate in Na-containing medium was blunted in the presence of phloretin, a known inhibitor of the sodium-dependent vitamin C transporters SVCT1 and SVCT2 (Tsukaguchi, H., Tokui, T., Mackenzie, B., Berger, U. V., Chen, X. Z., Wang, Y., Brubaker, R. F. & Hediger, M. A. (1999) Nature 399, 70-75). […] Molecular expression of SVCT1 and SVCT2 transcripts in Calu-3 cells was verified using RT-PCR and DNA sequencing analysis. For comparison, human ciliated tracheal epithelial cultures (hTE) and a nasal cystic fibrosis airway cell line (CF15) were included. […] The recombinantly expressed SVCT2-EGFP fusion protein was targeted exclusively to the apical membrane pole of CF15 epithelia.

Test [1] concerns primary bovine tracheal epithelium. Put plainly: Transepithelial chloride secretion across primary bovine tracheal epithelium. The settings on record: DPC 5 mM, after quercetin. Format: cell-based. The procedure: Alternatively, such assays may be performed using a mammalian trachea, such as a primary human, mouse, sheep, pig or cow tracheal epithelium using the Ussing chamber technique as described above. Such assays are performed in the presence and absence of test compound to identify flavones, isoflavones, ascorbate or derivatives thereof that stimulate chloride transport.
FIG. 3 illustrates the results of a related experiment to evaluate the dose-dependent stimulation of transepithelial chloride secretion by quercetin across a primary bovine tracheal epithelium. The epithelial cells were first treated with amiloride (50 μM), and then with quercetin at the indicated concentrations. The dose-response relation yielded a half maximal stimulation at 12.5 μM.

The test system of a further test is Calu-3 monolayers. Description: Transepithelial short-circuit current (Isc) across unstimulated Calu-3 monolayers. Format: cell-based, human. The settings on record: DPC 5 mM. The procedure:
Currents were recorded with a serosal-to-mucosal chloride gradient at 0 mV and pulses were obtained at 2 mV.
Ascorbic acid (100 μM) was added as indicated. For comparison, ascorbic acid-stimulated chloride current was subsequently stimulated by the cAMP elevating agonist forskolin (20 μM, serosal). The CFTR activator genistein (20 mM) was then added to the mucosal perfusion as indicated. […] Currents were recorded with a serosal-to-mucosal chloride gradient at 0 mV and pulses were obtained at 2 mV.
100 μM ascorbic acid and forskolin (fsk, 20 μM, serosal) were added as indicated. The CFTR activator kaempferol (20 μM) was subsequently added, as indicated. […] Currents were recorded with a serosal-to-mucosal chloride gradient at 0 mV and pulses were obtained at 2 mV.
This experiment was performed using unstimulated tissue.
Kinetic analysis is depicted on the right panel and estimated half maximal stimulatory dose was 11.7 μM. […]
For comparison, ascorbic acid-stimulated chloride currents were stimulated by the cAMP elevating agonist forskolin (20 μM, serosal).
Stimulated C1 currents returned to baseline after 5-15 min.

The source of these data is US8138158B2, “Compositions and methods for therapy for diseases characterized by defective chloride transport” (Children's Hospital & Research Center at Oakland, priority 1997, dated 2012).

Take `O=C(O)c1ccccc1Nc1ccccc1` [DPC, reference compound]: in the test with Calu-3 airway epithelia, the “ISC decreased to” value is 30±4 μA/cm^2. The “inhibition of stimulated current by CFTR channel blocker” value in test [1] is listed as “fully inhibited”. Also, the “block of stimulated chloride current by chloride channel blocker” value in the test on Calu-3 monolayers is “completely blocked”.
